{"source": "patent US7265155B2", "about": "(NBS Pharmaceuticals, Inc., priority 1996, dated 2007)", "key": {"chronic spinalized rat [1]": {"tested_on": "chronic spinalized rat", "test": "Spasticity scores elicited by a metal probe in chronic spinally transected rats", "format": "in vivo", "conditions": "300 mg/kg i.p.", "from_the_text": "In these studies, male albino Holtzman-derived rats (Harlan Sprague-Dawley Laboratories) weighing 270-530 grams were used as subjects. The animals were housed independently and had continuous access to food and water throughout the experiments.\nAll procedures were reviewed and approved by the Institutional Animal Care and Use Committee. Animals were anesthetized using a mixture of isoflurane and oxygen at a flow rate of 4 liters/minute.\nThe rats were then placed in a stereotaxic frame and anesthesia was maintained. An incision was made so that the paraspinal muscles could be retracted and a laminectomy performed between T6-T9. A one- to two-millimeter portion of the spinal cord was removed by evacuation and replaced with Gel foam to reduce bleeding, after which the incision was closed in layers.\nFollowing the transection, rats were placed in a room in which the ambient temperature was raised to about 80° F. with a space heater to maintain body temperature. On the following morning post-surgery, the hindquarters of the spinalized rats were bathed and their urine expressed manually by applying pressure to their bladders. Experiments were conducted between 21 and 28 days after surgery. For the first two weeks, these rats were given 0.25 ml of the antibiotic Sulfatrim Pediatric Suspension orally to prevent bladder infection.\nWithin approximately two weeks, all animals regained bladder control and were no longer given antibiotic treatment. Advokat, Brain Res. 684: 8 (1995). […]\nInitial assessment of spasticity was performed by the subjective scoring method of rating the resulting spasticity response elicited with an innocuous stimulus, i.e., a metal probe, that was pressed against the lower abdomen at four specific sites. The spastic reaction was evaluated for each of the four trials using a scale ranging from zero (no spastic response in all four trials) to four (a maximum, tonic-clonic reaction elicited in all four trials). […] These raw or normalized scores were analyzed with a one-way repeated measures ANOVA."}, "[2]": {"tested_on": "Frings audiogenic seizure-susceptible mouse", "test": "Frings audiogenic seizure-susceptible mouse model of epilepsy", "format": "in vivo", "conditions": "for ED50: Mus musculus", "from_the_text": "One useful model is provided by the Frings audiogenic seizure-susceptible mouse, a model of reflex epilepsy. At the time of testing, individual mice are placed into a round Plexiglas chamber and exposed to a sound stimulus of 110 decibels, 11 kHz, for 20 seconds. Animals not displaying tonic hindlimb extensions were considered protected. In addition, the seizure score for each mouse can be recorded as: (1) running for less than 10 seconds; (2) running for greater than 10 seconds; (3) clonic activity of limbs and/or vibrissae; (4) forelimb extension/hindlimb flexion; and (5) hindlimb extension.\nThe average seizure score can be calculated for each group of mice employed in the dose-response study. At each dose, mice are also tested on a rotarod for testing of motor impairment (toxicity). Testing for motor impairment on the rotarod involves placing a mouse for a three-minute trial period on a one-inch diameter rod rotating at six revolutions per minute. If the mouse falls off of the rotating rod three times within the three-minute time period, it is considered a toxic response."}, "amygdala-kindled rat": {"tested_on": "amygdala-kindled rat", "test": "Antiepileptogenic effect during kindling in the amygdala-kindled rat", "format": "in vivo", "conditions": "daily 500 mg/kg p.o.", "description": "In these studies, groups of adult, male Sprague-Dawley rats weighing at least 230 gr were implanted with a teflon-coated bipolar electrode sterotaxically placed in the anterior basolateral nucleus of the amygdala under ketarine and xylazine anesthesia. The electrode was implanted at the following coordinates with Bregma as zero: AP-2.2 mm, ML-4.7 mm, DV-8.7 mm. Chronic treatment with vehicle (0.5% carboxymethylcellulose, p.o.) or isovaleramide (500 mg/kg, p.o., […] of body weight) was initiated after a seven-day postoperative recovery period. […] After 11 treatment days, all animals were permitted a 7-day drug- and stimulus-free period. […] Seizure score and afterdischarge duration were recorded after each stimulation. Seizure score was classified according to Racine scale (1972): stage 0, no abnormal behavior; stage 1, mouth or facial movements; stage 2, mouth or facial movements and head nodding; stage 3, stage 2 and forelimb clonus; stage 4, stage 3 and rearing; stage 5, stage 4 and falling. A score of 2-3 represents a focal seizure while a score of 4-5 represents secondarily generalized seizures. Afterdischarge duration was the total duration of the amygdala electroencephalogram spikes with an amplitude of at least twice the amplitude of the prestimulus recording and a frequency greater than 1/sec. […]"}, "chronic spinalized rat [3]": {"tested_on": "chronic spinalized rat", "test": "Flexor reflex (EMG) in the chronic spinalized rat", "format": "in vivo", "conditions": "300 mg/kg p.o.; 30, 60, 90 and 120 minutes post-administration", "description": "With reference to FIG. 3, the polysynaptic flexor-reflex responses, to test stimuli which activate high-threshold afferents, were recorded as EMG activity from the ipsilateral hamstring muscle. Supramaximal electric shocks were applied to the hindpaw, and recording electrodes were placed in the biceps femoris semitendinosus muscle. Five sets of stimuli were made at each time point. The flexor reflex was recorded, in both the pre-drug and the post-drug periods, every 30 minutes once a stable baseline response was achieved. See Hao et al., Eur. J. Pharmacol. 191: 407 (1990).\nThus, the responses were determined in spinalized rats by observing the flexor-reflex response (FIG. 3) before treatment and at each of 30, 60, 90, and 120 minutes following administration of isovaleramide (300 mg/kg p.o.), baclofen (10 mg/kg s.c.) and vehicle (water, 12 ml/kg p.o.), respectively.\nIn FIG. 4, the responses from FIG. 3 and additional doses of isovaleramide and baclofen are converted to a total-area-under-the-curve format, covering the entire, two-hour measurement period. […] Between the drug-treated groups, no differences were found in total reduction of the flexor reflex over the two-hour period (pairwise multiple comparison, Student-Newman-Keuls method)."}, "[4]": {"conditions": "in vivo; cited from earlier work"}}, "note": "“Also recorded” adds a separate entry of the source. Like-named read-outs stand apart in the source and are kept apart here. Marks after values point to notes of the source that are not given here.", "data": [{"molecule": "CC(C)CC(N)=O", "note": "[Isovaleramide, isovaleramide]", "values": [{"measurement": "overt behavioral toxicity or motor impairment", "setting": "chronic spinalized rat [1]", "result": "No overt behavioral toxicity or motor impairment was observed"}, {"measurement": "reduction of spasticity scores", "setting": "chronic spinalized rat [1]; 15, 30, 60 and 120 minutes post-administration", "result": "45-65%"}, {"measurement": "spasticity scores by the next day", "setting": "chronic spinalized rat [1]; 1440 minutes (24 hours)", "result": "essentially returned to baseline values"}, {"measurement": "Number Protected of Eight Mice Tested", "setting": "[2]; 75 mg/kg i.p., 15 minutes", "result": 1}, {"measurement": "Seizure Score ± S.E.M.", "setting": "[2]; 75 mg/kg i.p., 15 minutes", "result": "4.4 ± 0.6"}, {"measurement": "Seizure Score ± S.E.M.", "setting": "[2]; 100 mg/kg oral", "result": "4.5 ± 0.5"}, {"measurement": "Number Protected of Eight Mice Tested", "setting": "[2]; 100 mg/kg oral, measured at 30 minutes", "result": 1}, {"measurement": "Number Protected of Eight Mice Tested", "setting": "[2]; 112.5 mg/kg i.p., 15 minutes", "result": 2}, {"measurement": "Seizure Score ± S.E.M.", "setting": "[2]; 112.5 mg/kg i.p., 15 minutes", "result": "4.0 ± 0.6"}, {"measurement": "Number Protected of Eight Mice Tested", "setting": "[2]; 150 mg/kg i.p., 15 minutes", "result": 6}, {"measurement": "Seizure Score ± S.E.M.", "setting": "[2]; 150 mg/kg i.p., 15 minutes", "result": "2.0 ± 0.6"}, {"measurement": "Seizure Score ± S.E.M.", "setting": "[2]; 200 mg/kg oral", "result": "2.9 ± 0.8"}, {"measurement": "Number Protected of Eight Mice Tested", "setting": "[2]; 200 mg/kg oral, measured at 30 minutes", "result": 4}, {"measurement": "Number Protected of Eight Mice Tested", "setting": "[2]; 300 mg/kg i.p., 15 minutes", "result": 8}, {"measurement": "Seizure Score ± S.E.M.", "setting": "[2]; 300 mg/kg i.p., 15 minutes", "result": "1.0 ± 0"}, {"measurement": "Seizure Score ± S.E.M.", "setting": "[2]; 300 mg/kg oral", "result": "1.4 ± 0.5"}, {"measurement": "Number Protected of Eight Mice Tested", "setting": "[2]; 300 mg/kg oral, measured at 30 minutes", "result": 7}, {"measurement": "Seizure Score ± S.E.M.", "setting": "[2]; 600 mg/kg oral", "result": "0.25 ± 0.25"}, {"measurement": "Number Protected of Eight Mice Tested", "setting": "[2]; 600 mg/kg oral, measured at 30 minutes", "result": 8}, {"measurement": "Seizure Score ± S.E.M.", "setting": "[2]; 1500 mg/kg oral", "result": "0.6 ± 0.2"}, {"measurement": "Number Protected of Eight Mice Tested", "setting": "[2]; 1500 mg/kg oral, tested at 4 hours", "result": "8^b"}, {"measurement": "Seizure Score ± S.E.M.", "setting": "[2]; 2000 mg/kg oral", "result": "0 ± 0"}, {"measurement": "Number Protected of Eight Mice Tested", "setting": "[2]; 2000 mg/kg oral, tested at 4 hours, only seven mice tested", "result": "7^b,d"}, {"measurement": "ED50", "setting": "[2]; ip, 0.25 h, i.p., 15 minutes, read-out: ED50 for protection against tonic extension", "result": 126, "unit": "mg/kg"}, {"measurement": "ED50", "setting": "[2]; oral, read-out: ED50 for protection", "result": 186, "unit": "mg/kg"}, {"measurement": "time course of anticonvulsant activity", "setting": "[2]; i.p.", "result": "noted as early as 15 minutes, but decreased substantially by two hours"}, {"measurement": "seizure score, dose dependence", "setting": "[2]; i.p., 15 minutes", "result": "dose-dependent reduction in seizure score"}, {"measurement": "anticonvulsant activity when administered orally", "setting": "[2]; oral", "result": "displayed anticonvulsant activity when administered orally"}, {"measurement": "seizure development over time", "setting": "amygdala-kindled rat", "result": "eventually developed full stage 5 seizures"}, {"measurement": "increases in seizure score and afterdischarge duration during electrical kindling", "setting": "amygdala-kindled rat; 30-minute pretreatment", "result": "delayed the increases in both seizure score and afterdischarge duration; also recorded: elicited a delay in the rate of increase in both seizure score and afterdischarge duration"}, {"measurement": "magnitude of the flexor reflex", "setting": "chronic spinalized rat [3]", "result": "reduce the magnitude of the flexor-reflex responses, at all time points; also recorded: significant decrease in the magnitude of the flexor reflex, comparable to that observed with baclofen"}, {"measurement": "anxiolytic properties", "setting": "[4]", "result": "clinically useful anxiolytic properties"}]}]}
